Common to all, as to assay type: cell-based
Data set [1] has as its system MCF7 cells. Put plainly: Real time RT-PCR of miRNAs in hormone-treated MCF7 cells. The conditions noted are these: MCF7, estradiol and ICI. Here is the method: Hormone Treatments. MCF7 cells were grown in phenol red-free media containing charcoal stripped serum for 24 hours prior to hormone treatments. The cells were treated with ethanol, 10 nM estradiol or a combination of 10 nM estradiol and 1 mM ICI 182,780 (ICI, Tocris Bioscience) for 6 h, 24 h or 48 h, as indicated, before harvesting RNA using Trizol (Invitrogen) as per the manufacturer's instructions.
Real Time RT-PCR. Poly A tailing and reverse transcription was performed using the NCode miRNA qRT-PCR kit (Invitrogen) as per manufacturer's instructions. SYBR green real time RT-PCR was performed using the Universal Forward Primer (Invitrogen) and miRNA specific primers. The specific primers used were: miR-193b 5′-[…]-3′ (SEQ ID NO: 10); miR-19b 5′-[…]-3′ (SEQ ID NO: 11); miR-20a 5′-[…]-3′ (SEQ ID NO: 12); miR-106a 5′-[…]-3′ (SEQ ID NO: 13); and miR-92b* 5′-[…]-3′ (SEQ ID NO: 14). Reported values are the means and standard errors of 3 biological replicates.
For miR-22, miR-221 and miR-7, taqman real time PCR was performed. Prior to generating cDNA, mRNA was treated with DNase1 (Invitrogen) for 15 min at room temperature. RNA was reverse transcribed into cDNA in a reaction containing reaction buffer, 10 mM DTT, 1 mM dNTPs, RNAse inhibitor (Promega), random hexamers (250 ng) and 200 U of MMUV-RT (ABI). The reaction proceeded at 25° C. for 10 min, then at 37° C. for 1 h. For normalization, real time RT-PCR was performed on the cDNA using ribosomal RNA primers and probe (ABI). TaqMan mRNA Reverse Transcription kit was used to generate cDNA for real time RT-PCR reaction in conjunction with a miR-22, miR-221 or miR-7 specific primers and probe (ABI). Reported values are the means and standard errors of three biological replicates.
The relative mRNA or miRNA levels were calculated using the comparative Ct method (ΔΔCt). Briefly, the Ct (cycle threshold) values for the rRNA were subtracted from Ct values of the target gene to achieve the ΔCt value. The 2^−ΔCt was calculated for each sample and then each of the values was then divided by a control sample to achieve the relative miRNA levels (ΔΔCt).
In general terms: Real-time PCR tracks product formation cycle by cycle.

The test system of data set [2] is ESR1 3′UTR. Put plainly: Luciferase reporter assay, ESR1 3′UTR region ESR1-1, in MCF7 cells. The note with it: ESR1-1 reporter, 50 nM each mimic, versus scrambled negative control. From the text: Luciferase Assays. A 360 bp fragment of the 3′ untranslated region of ESR1 containing the putative binding sites for miR-203, miR-221 and miR-22 was amplified by PCR from HeLa genomic DNA (NEB) using the following primers: ESR1-1 F 5′-[…]-3′ (SEQ ID NO: 6) and ESR1-1 R 5′-[…]-3′ (SEQ ID NO: 7). A 680 bp fragment containing the putative binding sites for miR-130/301, miR-148/152, miR-19 and miR-26 was amplified using the following primers: ESR1-2 F 5′-[…]-3′ (SEQ ID NO: 8) and ESR1-2 R 5′-[…]-3′ (SEQ ID NO: 9). MCF7 cells (20,000 cells/well) in a 96-well plate were transfected with the 100 nM of the negative control, 50 nM each of the miR-22, miR-221 or both as described above. After 24 h, the firefly reporter plasmid (0.196 μg) and a renilla luciferase normalization plasmid (0.004 μg/pRL-SV40, Promega) were transfected in using Lipofectamine 2000. Cells were collected 48 hours later for assay using the Dual Luciferase Reporter assay system (Promega).
(In general: Reporter assays use an easily measured gene product as a stand-in for the process of interest.)

For data set [3], the system named is FASN. Kind of data set: Immunoblot of FASN in triple-negative (BT549) cells after miR-193b mimic transfection. The conditions noted are these: TN cells (BT549), 50 nM mimic, 72 h. The procedure:
(§1) Transfections. BT549 or MDA-MB-231 cells were plated one day prior to transfection. Lipofectamine 2000 (Invitrogen) was incubated with the miRNA mimics for miR-22, miR-221, miR-193b or miR-7 (Ambion) or scrambled negative control (Ambion) at a concentration of 50 nM incubated in serum free media for 20 minutes prior to addition to the cells. Cells were incubated with the transfection mix at 37° C. for 4 h before replacement of FBS to 5%. Protein was harvested 72 h post-transfection using RIPA lysis buffer (1% NP40, 0.5% NaDeoxycholate, 0.1% SDS, 50 mM Tris, 150 mM NaCl, 5 mM EDTA) containing protease inhibitors.
(§2) Immunoblotting. Cell lysates (50 μg) in SDS sample buffer were denatured and separated on 8% SDS PAGE gels and transferred to PVDF membranes. The membranes were blocked in 5% milk in TBS-T, and then probed overnight at 4° C. […] After incubation with appropriate HRP-conjugated secondary antibody, results were detected using Western Lightning Chemiluminescence Reagent Plus (Perkin Elmer).

Data set [4] deals with BT549 (triple negative) cells. Kind of data set: Apoptosis (PARP cleavage immunoblot) in triple-negative (BT549) cells. The conditions noted are these: TN cells (BT549), 50 nM mimic, 72 h. The procedure:
as §1, §2

Data set [5] concerns MCF10A (normal immortalized) cells. Put plainly: Apoptosis in MCF10A cells after miR-193b transfection.

With `C[C@]12CC[C@@H]3c4ccc(O)cc4C[C@@H](CCCCCCCCC[S+]([O-])CCCC(F)(F)C(F)(F)F)[C@H]3[C@@H]1CC[C@@H]2O` (stereo partly drawn) [ICI, ICI 182,780], the “estradiol effect on miR-92b*” value in data set [1] (24 h) is recorded as “reversed”. In addition, in data set [1] (48 h), the “estradiol effect on miR-19b” value was “abrogated”, the “estradiol effect on miR-20a” value is “abrogated” and the “estradiol effect on miR-106a” value was “abrogated”.

Consider “miR-221 mimic: miRNA mimic for miR-221 (Ambion); hsa-miR-221 sequence agcuacauugucugcuggguuuc (AGCUACAUUGUCUGCUGGGUUUC; chemistry not given here)”, for which, in data set [2], the “decrease in luciferase activity” value came to 13.7%.

Regarding “miR-193b mimic: miRNA mimic for miR-193b (Ambion); miR-193b is SEQ ID NO:1 aacuggcccucaaagucccgcu (AACUGGCCCUCAAAGUCCCGCU; mimic duplex, complementary strand not listed, further chemistry not given here)”, the FASN protein result in data set [3] is “almost complete repression”. Moreover, in data set [4], the PARP cleavage result is listed as “complete PARP cleavage” and the “apoptosis, as seen by the appearance of cleaved PARP” value is given as “increase in apoptosis”. In addition, the apoptosis result in data set [5] is “no apoptosis”.

The values above are taken from US8507195B2, “MiRNAs dysregulated in triple-negative breast cancer” (The Regents of the University of Colorado, priority 2009, dated 2013).
